Measured values as given in patent US11505575B2, “Cyclic polypeptides for PCSK9 inhibition” (Merck Sharp & Dohme LLC, priority 2018, dated 2022).
*1 amine or outer side, *2 acyl side, *3 side chain or, on linkers, in order; H or OH if unused. Where a SMILES comes first, the peptide text is derived from it. Bridges are numbered along the chain shown (N, C = ends). [ ]: non-standard residue; d: D form. The star is where a group is joined. ξ: configuration not given here. Phe(3-CF3) = N[C@@H](Cc1cccc(C(F)(F)F)c1)C(=O)O; Trp(5-F) = N[C@@H](Cc1c[nH]c2ccc(F)cc12)C(=O)O; Trp(7-aza) = N[C@@H](Cc1c[nH]c2ncccc12)C(=O)O; pY = N[C@@H](Cc1ccc(OP(=O)(O)O)cc1)C(=O)O; pT = C[C@@H](OP(=O)(O)O)[C@H](N)C(=O)O; mXylylene = c1cc(C[*:1])cc(C[*:2])c1; pS = N[C@@H](COP(=O)(O)O)C(=O)O; aThr = C[C@H](O)[C@H](N)C(=O)O; Tle = CC(C)(C)[C@H](N)C(=O)O; αMeV = CC(C)[C@](C)(N)C(=O)O; αMeS = C[C@](N)(CO)C(=O)O; Api = NC1(C(=O)O)CCNCC1; Nva = CCC[C@H](N)C(=O)O; ξαMeS = CC(N)(CO)C(=O)O; Aib = CC(C)(N)C(=O)O; Mpa = O=C(O)CCS; X5 = COCC*

Legend:
Assay type in all cases: binding
[1] = target: T1, PCSK9 (Homo sapiens, UniProt Q8NBP7); assay: PCSK9 Alexa FRET Plus assay (displacement of AlexaFluor647-tagged cyclic peptide Reagent B); settings: 0.5 nM PCSK9, 960 nM AF cyclic peptide Reagent B
T1 construct: biotin (biotinylated)
Experimental: A solution containing 1 nM biotinylated PCSK9+2.5 nM Lance Streptavidin Europium (Strep-Eu) was made in 50 mM HEPES pH 7.4, 0.15 M NaCl, 5 mM CaCl2, 0.01% BSA, and 0.01% Surfactant P20. A separate solution containing 1920 nM of the AlexaFluor tagged cyclic peptide was made in the same buffer system. An Echo was used to transfer 0.075 ul of compound plus 0.675 ul of DMSO to each well of an assay plate followed by the addition of 15 ul of PCSK9+Stept-Eu and 15 ul of AF peptide. The final assay volume was 30.750 ul containing 0.5 nM PCSK9, 1.25 nM Strep-Eu, and 960 nM AF cyclic peptide. The reaction was incubated at room temperature for at least two hours prior to fluorescence measurements using an Envision Multilabel Reader. IC50 values were determined by fitting data to a sigmoidal dose-response curve using nonlinear regression. Ki was then calculated from the IC50 and the KD of AF cyclic peptide. Counts (B-counts) of the europium-labeled PCSK9 were followed to observe if compounds were adversely affecting PCSK9. A fall off of the B-counts likely indicated a false positive of inhibition. Data from this procedure was reported as “P=‘numerical value’ (nanomolar)”

[2] = target: human PCSK9 / human LDLR EGFa domain interaction (Homo sapiens, UniProt Q8NBP7); assay: TR-FRET assay of inhibition of the PCSK9-LDLR protein-protein interaction; settings: 20 nM biotinylated human PCSK9 + 20 nM his-tagged human LDLR EGFa domain, 2 hours room temperature
In short: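 Biotinylated human PCSK9 (20 nM) and His-tagged human LDLR EGFa domain (20 nM) incubated with Ulight-streptavidin and Eu-anti-His (5 nM each), 2 h at room temperature, in HEPES pH buffer with 5 mM CaCl2. TR-FRET read-out; IC50 from 4-parameter fit of dose-response.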

[3] = target: T1, PCSK9; assay: PCSK9 Alexa FRET Standard assay (displacement of AlexaFluor647-tagged cyclic peptide Reagent A); settings: 0.5 nM PCSK9, 20 nM AF cyclic peptide Reagent A
Experimental: A solution containing 1 nM biotinylated PCSK9+2.5 nM Lance Streptavidin Europium (Strep-Eu) was made in 50 mM HEPES pH 7.4, 0.15 M NaCl, 5 mM CaCl2, 0.01% BSA, and 0.01% Surfactant P20. A separate solution containing 40 nM of the AlexaFluor tagged cyclic peptide was made in the same buffer system. An Echo was used to transfer 0.750 ul of compound to an assay plate followed by the addition of 15 ul of PCSK9+Stept-Eu and 15 ul of AF peptide. The final assay volume was 30.750 ul containing 0.5 nM PCSK9, 1.25 nM Strep-Eu, and 20 nM AF cyclic peptide. The reaction was incubated at room temperature for at least two hours prior to fluorescence measurements using an Envision Multilabel Reader. IC50 values were determined by fitting data to a sigmoidal dose-response curve using nonlinear regression. Ki was then calculated from the IC50 and the KD of AF cyclic peptide. Counts (B-counts) of the europium-labeled PCSK9 were followed to observe if compounds were […]. A fall off of the B-counts likely indicated a false positive of inhibition. Data from this procedure was reported as “A=‘numerical value’ (nanomolar)”

T1 sequence (Q8NBP7 153-692): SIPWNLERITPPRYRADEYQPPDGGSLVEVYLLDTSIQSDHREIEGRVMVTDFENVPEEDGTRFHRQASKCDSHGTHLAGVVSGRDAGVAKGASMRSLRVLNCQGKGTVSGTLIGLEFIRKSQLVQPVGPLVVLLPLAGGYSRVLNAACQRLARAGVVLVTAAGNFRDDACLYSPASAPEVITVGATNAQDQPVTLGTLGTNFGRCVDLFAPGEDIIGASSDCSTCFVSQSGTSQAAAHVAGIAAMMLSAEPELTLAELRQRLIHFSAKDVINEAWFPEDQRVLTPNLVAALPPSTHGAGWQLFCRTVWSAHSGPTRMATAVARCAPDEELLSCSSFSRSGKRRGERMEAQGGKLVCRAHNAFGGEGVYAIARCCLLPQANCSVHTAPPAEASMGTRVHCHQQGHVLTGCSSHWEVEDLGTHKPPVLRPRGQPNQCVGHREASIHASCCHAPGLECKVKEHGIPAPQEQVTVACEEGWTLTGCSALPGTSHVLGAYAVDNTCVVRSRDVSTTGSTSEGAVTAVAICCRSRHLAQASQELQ
human PCSK9 / human LDLR EGFa domain interaction, sequence (Q8NBP7 153-692): as above
human PCSK9 / human LDLR EGFa domain interaction, sequence (Q8NBP7 31-152 partner limits assumed): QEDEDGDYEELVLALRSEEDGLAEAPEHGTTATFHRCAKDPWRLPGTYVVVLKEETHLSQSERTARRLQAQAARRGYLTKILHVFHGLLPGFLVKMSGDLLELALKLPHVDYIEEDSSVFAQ

CC1O[C@@H](C)[C@@H]2NC(=O)[C@@]1(C)NC(=O)[C@H](Cc1ccc(OP(=O)(O)O)cc1)NC(=O)[C@H](C)NC(=O)C(C)(C)NC(=O)[C@H](Cc1c[nH]c3ncccc13)NC(=O)[C@H]([C@@H](C)O)NC(=O)[C@@H]1CCCN1C(=O)[C@H](Cc1ccc(O)cc1)NC(=O)[C@H](C(C)(C)C)NC(=O)CCSCc1cccc(c1)CSC[C@@H](C(N)=O)NC2=O (some centres unmarked) [Compound 014]
IC50 [1]: 0.001 to 0.1 µM | IC50 [2]: 0.001 to 0.1 µM | IC50 [3]: 0.001 to 0.1 µM

CC(C)[C@]1(C)NC(=O)[C@H](Cc2ccc(O)cc2)NC(=O)[C@H](C)NC(=O)C(C)(C)NC(=O)[C@H](Cc2c[nH]c3ncccc23)NC(=O)[C@H]([C@@H](C)O)NC(=O)[C@@H]2CCCN2C(=O)[C@H](Cc2ccc(O)cc2)NC(=O)[C@H](C(C)(C)C)NC(=O)CCSCc2cccc(c2)CSC[C@@H](C(N)=O)NC(=O)[C@H]([C@@H](C)OP(=O)(O)O)NC1=O [Compound 015] ([Mpa][Tle]YPT[Trp(7-aza)][Aib]AY[αMeV][pT]C-NH2; linker 1-12 via mXylylene)
IC50 [1]: 0.001 to 0.1 µM | IC50 [2]: 0.001 to 0.1 µM | IC50 [3]: 0.001 to 0.1 µM

CC(C)[C@]1(C)NC(=O)[C@H](Cc2ccc(O)cc2)NC(=O)[C@H](C)NC(=O)C(C)(C)NC(=O)[C@H](Cc2c[nH]c3ncccc23)NC(=O)[C@H]([C@@H](C)O)NC(=O)[C@@H]2CCCN2C(=O)[C@H](Cc2ccc(O)cc2)NC(=O)[C@H](C(C)(C)C)NC(=O)CCSCc2cccc(c2)CSC[C@@H](C(N)=O)NC(=O)[C@H](COP(=O)(O)O)NC1=O [Compound 016] ([Mpa][Tle]YPT[Trp(7-aza)][Aib]AY[αMeV][pS]C-NH2; linker 1-12 via mXylylene)
IC50 [1]: 0.001 to 0.1 µM | IC50 [2]: 0.001 to 0.1 µM | IC50 [3]: 0.001 to 0.1 µM

CC(=O)N[C@H]1CSCc2cccc(c2)CSC[C@H](C(N)=O)NC(=O)[C@H]([C@@H](C)O)NC(=O)[C@](C)(C(C)C)NC(=O)[C@H](Cc2ccc(O)cc2)NC(=O)[C@H](C)NC(=O)[C@](C)(CO)NC(=O)[C@H](Cc2c[nH]c3ncccc23)NC(=O)[C@H]([C@@H](C)O)NC(=O)[C@@H]2CCCN2C(=O)[C@H](Cc2ccc(O)cc2)NC(=O)[C@H](C(C)(C)C)NC1=O [Compound 031] (Ac-C[Tle]YPT[Trp(7-aza)][αMeS]AY[αMeV]T[dC]-NH2; linker 1-12 via mXylylene)
IC50 [1]: 0.001 to 0.1 µM | IC50 [3]: 0.001 to 0.1 µM

CC(C)[C@](C)(NC(=O)[C@H](Cc1ccc(O)cc1)NC(=O)[C@H](C)NC(=O)C(C)(C)NC(=O)[C@H](Cc1c[nH]c2ncccc12)NC(=O)[C@@H](NC(=O)[C@@H]1CCCN1C(=O)[C@@H]1Cc2ccc(O)c(c2)CCCC[C@H](N)C(=O)N[C@@H](C(C)(C)C)C(=O)N1)[C@@H](C)O)C(N)=O [Compound 032]
IC50 [1]: 0.001 to 0.1 µM | IC50 [3]: 0.001 to 0.1 µM

CC(=O)N[C@H]1CSCc2cccc(c2)CSC[C@H](C(N)=O)NC(=O)[C@H]([C@@H](C)O)NC(=O)[C@](C)(C(C)C)NC(=O)[C@H](Cc2ccc(O)cc2)NC(=O)[C@H](C)NC(=O)C2(CCNCC2)NC(=O)[C@H](Cc2c[nH]c3ncccc23)NC(=O)[C@H]([C@@H](C)O)NC(=O)[C@@H]2CCCN2C(=O)[C@H](Cc2ccc(O)cc2)NC(=O)[C@H](C(C)(C)C)NC1=O [Compound 034] (Ac-C[Tle]YPT[Trp(7-aza)][Api]AY[αMeV]T[dC]-NH2; linker 1-12 via mXylylene)
IC50 [1]: 0.001 to 0.1 µM | IC50 [3]: 0.001 to 0.1 µM

COCC1(C)NC(=O)[C@H](Cc2c[nH]c3ncccc23)NC(=O)[C@H]([C@@H](C)O)NC(=O)[C@@H]2CCCN2C(=O)[C@H](Cc2ccc(O)cc2)NC(=O)[C@H](C(C)(C)C)NC(=O)[C@@H](NC(C)=O)CSCc2cccc(c2)CSC[C@H](C(N)=O)NC(=O)[C@H]([C@@H](C)O)NC(=O)[C@](C)(C(C)C)NC(=O)[C@H](Cc2ccc(O)cc2)NC(=O)[C@H](C)NC1=O (some centres unmarked) [Compound 035] (Ac-C[Tle]YPT[Trp(7-aza)][ξαMeS](Me)AY[αMeV]T[dC]-NH2; linker 1-12 via mXylylene)
IC50 [1]: 0.1 to 0.5 µM | IC50 [3]: 0.1 to 1 µM

COCCOCC1(C)NC(=O)[C@H](Cc2c[nH]c3ncccc23)NC(=O)[C@H]([C@@H](C)O)NC(=O)[C@@H]2CCCN2C(=O)[C@H](Cc2ccc(O)cc2)NC(=O)[C@H](C(C)(C)C)NC(=O)[C@@H](NC(C)=O)CSCc2cccc(c2)CSC[C@H](C(N)=O)NC(=O)[C@H]([C@@H](C)O)NC(=O)[C@](C)(C(C)C)NC(=O)[C@H](Cc2ccc(O)cc2)NC(=O)[C@H](C)NC1=O (some centres unmarked) [Compound 036] (Ac-C[Tle]YPT[Trp(7-aza)][ξαMeS](X5)AY[αMeV]T[dC]-NH2; linker 1-12 via mXylylene)
IC50 [1]: 0.001 to 0.1 µM | IC50 [3]: 0.001 to 0.1 µM

CC(=O)N[C@H]1CSCc2cccc(c2)CSC[C@H](C(N)=O)NC(=O)[C@H]([C@H](C)O)NC(=O)[C@](C)(C(C)C)NC(=O)[C@H](Cc2ccc(OP(=O)(O)O)cc2)NC(=O)[C@H](C)NC(=O)C(C)(C)NC(=O)[C@H](Cc2c[nH]c3ncccc23)NC(=O)[C@H]([C@@H](C)O)NC(=O)[C@@H]2CCCN2C(=O)[C@H](Cc2ccc(O)cc2)NC(=O)[C@H](C(C)(C)C)NC1=O [Compound 039] (Ac-C[Tle]YPT[Trp(7-aza)][Aib]A[pY][αMeV][aThr][dC]-NH2; linker 1-12 via mXylylene)
IC50 [1]: 0.001 to 0.1 µM | IC50 [3]: 0.1 to 1 µM

CC(=O)N[C@H]1CSCc2cccc(c2)CSC[C@H](C(N)=O)NC(=O)[C@H]([C@H](C)O)NC(=O)[C@](C)(C(C)C)NC(=O)[C@H](Cc2ccc(O)cc2)NC(=O)[C@H](C)NC(=O)C(C)(C)NC(=O)[C@H](Cc2c[nH]c3ncccc23)NC(=O)[C@H]([C@@H](C)O)NC(=O)[C@@H]2CCCN2C(=O)[C@H](Cc2ccccc2)NC(=O)[C@H](C(C)(C)C)NC1=O [Compound 040] (Ac-C[Tle]FPT[Trp(7-aza)][Aib]AY[αMeV][aThr][dC]-NH2; linker 1-12 via mXylylene)
IC50 [1]: 0.001 to 0.1 µM | IC50 [3]: 0.001 to 0.1 µM

CC(=O)N[C@H]1CSCc2cccc(c2)CSC[C@H](C(N)=O)NC(=O)[C@H]([C@H](C)O)NC(=O)[C@](C)(C(C)C)NC(=O)[C@H](Cc2ccc(O)cc2)NC(=O)[C@H](C)NC(=O)C(C)(C)NC(=O)[C@H](Cc2c[nH]c3ncccc23)NC(=O)[C@H]([C@@H](C)O)NC(=O)[C@@H]2CCCN2C(=O)[C@H](Cc2cccc(C(F)(F)F)c2)NC(=O)[C@H](C(C)(C)C)NC1=O [Compound 041] (Ac-C[Tle][Phe(3-CF3)]PT[Trp(7-aza)][Aib]AY[αMeV][aThr][dC]-NH2; linker 1-12 via mXylylene)
IC50 [1]: 0.5 to 5 µM | IC50 [3]: 21 to 50 µM

CC(=O)N[C@H]1CSCc2cccc(c2)CSC[C@H](C(N)=O)NC(=O)[C@H]([C@H](C)O)NC(=O)[C@](C)(C(C)C)NC(=O)[C@H](Cc2ccc(O)cc2)NC(=O)[C@H](C)NC(=O)C(C)(C)NC(=O)[C@H](Cc2c[nH]c3ncccc23)NC(=O)[C@H]([C@@H](C)O)NC(=O)[C@@H]2CCCN2C(=O)[C@H](Cc2c[nH]c3ccc(F)cc23)NC(=O)[C@H](C(C)(C)C)NC1=O [Compound 042] (Ac-C[Tle][Trp(5-F)]PT[Trp(7-aza)][Aib]AY[αMeV][aThr][dC]-NH2; linker 1-12 via mXylylene)
IC50 [1]: 0.001 to 0.1 µM | IC50 [3]: 0.001 to 0.1 µM

CCC[C@@H]1NC(=O)[C@H](Cc2ccc(O)cc2)NC(=O)[C@@H]2CCC(=O)NCCCC[C@H](NC(=O)[C@H](Cc3ccc(O)cc3)NC(=O)[C@H](C(C)(C)C)NC(=O)CCSCc3cccc(c3)CSC[C@@H](C(N)=O)NC(=O)[C@H]([C@@H](C)O)NC1=O)C(=O)N[C@@H]([C@@H](C)O)C(=O)N[C@@H](Cc1c[nH]c3ncccc13)C(=O)NC(C)(C)C(=O)N2 [Compound 110] ([Mpa][Tle]YKT[Trp(7-aza)][Aib]EY[Nva]TC-NH2; linker 1-12 via mXylylene; lactam 4-8)
IC50 [2]: 0.001 to 0.1 µM | IC50 [3]: 0.001 to 0.1 µM
